The values below come from ChEMBL document CHEMBL2029260, “Structural basis of selective inhibition of human tankyrases” (J Med Chem, 2012).

Each structure is given as a SMILES string. pEC50: −log10 of the molar value.

The assay concerns the target T1, Poly [ADP-ribose] polymerase tankyrase-2 (Homo sapiens, UniProt Q9H2K2).
T1 sequence (Q9H2K2 whole entry): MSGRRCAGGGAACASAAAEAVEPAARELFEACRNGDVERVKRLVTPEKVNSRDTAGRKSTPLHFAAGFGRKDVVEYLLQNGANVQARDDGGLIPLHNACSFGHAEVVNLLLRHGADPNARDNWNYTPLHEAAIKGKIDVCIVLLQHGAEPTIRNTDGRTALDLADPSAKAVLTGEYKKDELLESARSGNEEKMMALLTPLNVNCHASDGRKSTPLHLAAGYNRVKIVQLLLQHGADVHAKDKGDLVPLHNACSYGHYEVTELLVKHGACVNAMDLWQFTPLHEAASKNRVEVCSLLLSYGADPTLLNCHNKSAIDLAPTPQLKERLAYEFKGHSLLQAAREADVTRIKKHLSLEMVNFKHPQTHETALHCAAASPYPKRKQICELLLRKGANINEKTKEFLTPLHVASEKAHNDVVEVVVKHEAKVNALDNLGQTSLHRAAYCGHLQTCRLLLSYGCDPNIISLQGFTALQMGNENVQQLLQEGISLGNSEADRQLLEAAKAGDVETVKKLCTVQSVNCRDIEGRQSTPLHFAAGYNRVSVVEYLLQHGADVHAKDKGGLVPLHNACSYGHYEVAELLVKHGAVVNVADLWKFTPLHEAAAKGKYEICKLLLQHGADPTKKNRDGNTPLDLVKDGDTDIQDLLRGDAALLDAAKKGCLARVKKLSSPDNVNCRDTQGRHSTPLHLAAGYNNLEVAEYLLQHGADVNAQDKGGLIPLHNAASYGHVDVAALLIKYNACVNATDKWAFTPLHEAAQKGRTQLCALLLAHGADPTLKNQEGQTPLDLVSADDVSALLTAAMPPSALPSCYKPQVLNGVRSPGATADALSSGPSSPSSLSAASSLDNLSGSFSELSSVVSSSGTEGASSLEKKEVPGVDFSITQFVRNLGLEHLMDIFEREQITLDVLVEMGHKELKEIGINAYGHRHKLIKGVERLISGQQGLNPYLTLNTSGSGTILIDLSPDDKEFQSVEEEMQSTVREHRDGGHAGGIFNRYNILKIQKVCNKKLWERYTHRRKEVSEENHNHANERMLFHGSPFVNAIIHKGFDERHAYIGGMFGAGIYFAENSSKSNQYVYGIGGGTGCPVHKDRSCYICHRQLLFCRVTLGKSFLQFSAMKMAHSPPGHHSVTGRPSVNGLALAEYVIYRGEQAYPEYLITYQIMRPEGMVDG
Nature of the assay: Activity of N-terminus hexaHis-tagged human TNSK2 expressed in Escherichia coli BL21 (DE3) cells using biotinylated NAD+ as substrate after 90 mins by Western blot analysis.
For orientation: pEC50 means −log10 of the EC50, conventionally taken in molar units. Molecule `O=C(NC1CCCCC1)c1ccc(N2C(=O)[C@@H]3[C@H](C2=O)[C@@H]2C=C[C@H]3C2)cc1` showed a negative logarithm of the EC50 (pEC50) of under 4.60.
`O=C(NCc1ccncc1)c1ccc(N2C(=O)[C@@H]3[C@H](C2=O)[C@@H]2C=C[C@H]3C2)cc1` gave a pEC50 of 5.00.
As for `CO[C@H]1CCCC[C@@H]1NC(=O)c1ccc(N2C(=O)[C@@H]3[C@H](C2=O)[C@@H]2C=C[C@H]3C2)cc1`, the pEC50 is 5.70.
The value for `O=C(NCc1ccccc1)c1ccc(N2C(=O)[C@@H]3[C@H](C2=O)[C@@H]2C=C[C@H]3C2)cc1` was 4.70; that for `O=C(Nc1ccccc1)c1ccc(N2C(=O)[C@@H]3[C@H](C2=O)[C@@H]2C=C[C@H]3C2)cc1` was under 4.60.
On to `O=C(Nc1ccc(Br)cc1)c1ccc(N2C(=O)[C@@H]3[C@H](C2=O)[C@@H]2C=C[C@H]3C2)cc1`, for which the pEC50 was 6.00.
